This is an account of results in patent US8722687B2, “Imidazo [1,2-A]pyridine derivatives as FGFR kinase inhibitors for use in therapy” (Astex Therapeutics Ltd, priority 2009, dated 2014).

One experiment concerns the target T1, Ba/F3-TEL-FGFR3 cells (Homo sapiens, UniProt P22607).
T1 construct: fused on or other part: TEL (ETV6) N-terminal oligomerising part fused to the FGFR3 kinase part; P41212 (Transcription factor ETV6)
As to the kind of experiment: Ba/F3-TEL-FGFR3 cell proliferation assay (Alamar Blue). The class given is cell-based, murine. The settings on record: 72 hours; read-out: BaF3-TEL-FGFR3 prolif. As to the method: (§1) Ba/F3-TEL-FGFR3 & Ba/F3 (WT) Cell Proliferation Assays
(§2) Stably transfected Ba/F3-TEL-FGFR3 cells were plated out into black 96-well tissue culture plates with clear bottoms in RPMI medium containing 10% FBS and 0.25 mg/ml G418 at a density of 5×10^3 cells/well (200 μl per well). The parental wild-type Ba/F3 cells (DSMZ no.: ACC 300) were plated out into black 96-well tissue culture plates with clear bottoms in RPMI medium containing 10% FBS and 2 ng/ml mouse IL-3 (R&D Systems) at a density of 2.5×10^3 cells/well (200 μl per well). Plates were placed in an incubator overnight before adding the compounds the following day. Dilutions of compounds were made in DMSO starting at 10 mM and were diluted into the wells to give a final DMSO concentration of 0.1% in assay. Compounds were left on the cells for 72 hours before the plates were removed from the incubator and 20 μl of Alamar Blue™ (Biosource) was added to each well. Plates were placed in the incubator for 4-6 hours before reading plates at 535 nm (excitation)/590 nm (emission) on a Fusion plate reader (Packard). Where inhibition is high an IC50 can be determined.
A general note: The colour change of resazurin is a common sign of viable cells or microbes.

The target of a further experiment is T2, FGFR3 (Homo sapiens, UniProt P22607).
T2 construct: purchased Upstate
T2 sequence (P22607 23-806): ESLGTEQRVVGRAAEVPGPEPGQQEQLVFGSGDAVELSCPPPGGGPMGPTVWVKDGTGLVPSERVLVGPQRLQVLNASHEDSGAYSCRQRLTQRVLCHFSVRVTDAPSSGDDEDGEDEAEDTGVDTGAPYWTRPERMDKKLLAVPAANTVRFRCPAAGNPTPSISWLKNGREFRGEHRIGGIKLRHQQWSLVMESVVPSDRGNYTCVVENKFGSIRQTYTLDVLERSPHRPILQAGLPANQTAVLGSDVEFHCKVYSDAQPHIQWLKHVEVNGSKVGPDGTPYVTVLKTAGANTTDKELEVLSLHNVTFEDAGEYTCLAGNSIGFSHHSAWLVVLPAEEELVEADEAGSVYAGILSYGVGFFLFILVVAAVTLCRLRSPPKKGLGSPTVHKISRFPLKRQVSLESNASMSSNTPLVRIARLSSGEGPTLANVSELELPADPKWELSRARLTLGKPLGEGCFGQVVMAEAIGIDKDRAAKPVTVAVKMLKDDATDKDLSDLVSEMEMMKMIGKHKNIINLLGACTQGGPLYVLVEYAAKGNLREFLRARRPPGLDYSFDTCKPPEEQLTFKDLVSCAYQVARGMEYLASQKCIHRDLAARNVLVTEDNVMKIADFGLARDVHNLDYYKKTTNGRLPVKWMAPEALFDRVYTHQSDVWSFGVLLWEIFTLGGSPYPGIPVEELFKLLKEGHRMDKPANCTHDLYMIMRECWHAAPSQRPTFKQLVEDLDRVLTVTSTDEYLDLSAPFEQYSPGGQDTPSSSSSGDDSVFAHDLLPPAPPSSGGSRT
Description: FGFR3 in vitro kinase inhibitory activity assay. The class given is biochemical. Particulars: read-out: FGFR3 IC50(μM) or % I. The method, then:
(§3) FGFR3, VEGFR2 and PDGFR in vitro Kinase Inhibitory Activity Assays
(§4) Enzymes (from Upstate), prepared at 2× final concentration, were incubated with test compounds, biotinylated Flt3 substrate (biotin-VASSDNEYFYVDF) (Cell Signalling Technology Inc.) and ATP in the appropriate assay buffer (Table 1). The reaction was allowed to proceed for 3 hours (FGFR3), 1 hour (VEGFR2, PDGFR-beta) at room temperature on a plate shaker at 700 rpm before being stopped with 35 mM EDTA, pH 8 (FGFR3, VEGFR2) or 55 mM EDTA, pH 8 (PDGFR-beta). 5× detection mix/50 mM HEPES pH 7.5, 0.1% BSA, 11.34 nM Eu-anti-pY (PY20) (PerkinElmer) 74 nM SA-XL665 (Cisbio) for FGFR3, 50 mM HEPES, pH 7.5, 0.1% BSA, 11.34 nM Eu-anti-pY (PY20), 187.5 nM SA-XL665 for VEGFR2 and 50 mM HEPES, pH 7.5, 0.1% BSA, 11.34 nM Eu-anti-pY (PT66) (PerkinElmer), 375 nM SA-XL665 (Cisbio) for PDGFR-beta) was then added to each well and the plate sealed and incubated at room temperature for one hour on a plate shaker at 700 rpm. The plate was then read on a Packard Fusion plate reader or a BMG Pherastar both in TRF mode.

Experiment [1] deals with parental wild-type Ba/F3 cells. Description: Ba/F3 (WT) cell proliferation assay (Alamar Blue). The class given is cell-based, murine. Particulars: BaF3; 72 hours, with mouse IL-3; read-out: BaF3 WT prolif. The method, then: as §1, §2
Another experiment concerns the target T3, VEGFR2 (Homo sapiens, UniProt P35968).
T3 construct: purchased Upstate
Description: VEGFR2 in vitro kinase inhibitory activity assay. The class given is biochemical. Particulars: read-out: VEGFR2 IC50(μM) or % I. As to the method:
as §3, §4
Kinase Assay buffers were:
B: 50 mM HEPES pH 7.5, 6 mM MnCl2, 1 mM DTT, 0.01% TritonX-100, 0.1 mM Sodium orthovanadate

pIC50: −log10 of the molar value.

T1 sequence (P22607 whole entry, change not shown, the tested form may be a part): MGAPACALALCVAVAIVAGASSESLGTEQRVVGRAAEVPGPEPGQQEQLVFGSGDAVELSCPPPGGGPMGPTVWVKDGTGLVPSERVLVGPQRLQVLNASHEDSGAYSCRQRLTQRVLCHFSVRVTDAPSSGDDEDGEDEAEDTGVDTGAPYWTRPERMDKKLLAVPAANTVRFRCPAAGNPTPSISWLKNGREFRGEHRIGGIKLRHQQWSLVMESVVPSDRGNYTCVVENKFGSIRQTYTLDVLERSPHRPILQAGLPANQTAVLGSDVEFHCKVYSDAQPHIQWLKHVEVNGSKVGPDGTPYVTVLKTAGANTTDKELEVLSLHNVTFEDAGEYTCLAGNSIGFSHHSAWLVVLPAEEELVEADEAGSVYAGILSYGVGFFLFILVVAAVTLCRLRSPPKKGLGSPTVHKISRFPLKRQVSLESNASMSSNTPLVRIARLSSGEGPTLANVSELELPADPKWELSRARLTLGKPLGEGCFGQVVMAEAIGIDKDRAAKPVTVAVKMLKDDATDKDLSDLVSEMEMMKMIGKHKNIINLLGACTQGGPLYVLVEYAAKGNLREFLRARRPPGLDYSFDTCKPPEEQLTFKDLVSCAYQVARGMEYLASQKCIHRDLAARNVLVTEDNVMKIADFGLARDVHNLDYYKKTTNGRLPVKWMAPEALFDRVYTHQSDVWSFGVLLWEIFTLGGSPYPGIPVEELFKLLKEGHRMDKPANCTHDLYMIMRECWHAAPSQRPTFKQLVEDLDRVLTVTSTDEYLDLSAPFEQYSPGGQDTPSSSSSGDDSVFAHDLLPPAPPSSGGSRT
T3 sequence (P35968 20-1356): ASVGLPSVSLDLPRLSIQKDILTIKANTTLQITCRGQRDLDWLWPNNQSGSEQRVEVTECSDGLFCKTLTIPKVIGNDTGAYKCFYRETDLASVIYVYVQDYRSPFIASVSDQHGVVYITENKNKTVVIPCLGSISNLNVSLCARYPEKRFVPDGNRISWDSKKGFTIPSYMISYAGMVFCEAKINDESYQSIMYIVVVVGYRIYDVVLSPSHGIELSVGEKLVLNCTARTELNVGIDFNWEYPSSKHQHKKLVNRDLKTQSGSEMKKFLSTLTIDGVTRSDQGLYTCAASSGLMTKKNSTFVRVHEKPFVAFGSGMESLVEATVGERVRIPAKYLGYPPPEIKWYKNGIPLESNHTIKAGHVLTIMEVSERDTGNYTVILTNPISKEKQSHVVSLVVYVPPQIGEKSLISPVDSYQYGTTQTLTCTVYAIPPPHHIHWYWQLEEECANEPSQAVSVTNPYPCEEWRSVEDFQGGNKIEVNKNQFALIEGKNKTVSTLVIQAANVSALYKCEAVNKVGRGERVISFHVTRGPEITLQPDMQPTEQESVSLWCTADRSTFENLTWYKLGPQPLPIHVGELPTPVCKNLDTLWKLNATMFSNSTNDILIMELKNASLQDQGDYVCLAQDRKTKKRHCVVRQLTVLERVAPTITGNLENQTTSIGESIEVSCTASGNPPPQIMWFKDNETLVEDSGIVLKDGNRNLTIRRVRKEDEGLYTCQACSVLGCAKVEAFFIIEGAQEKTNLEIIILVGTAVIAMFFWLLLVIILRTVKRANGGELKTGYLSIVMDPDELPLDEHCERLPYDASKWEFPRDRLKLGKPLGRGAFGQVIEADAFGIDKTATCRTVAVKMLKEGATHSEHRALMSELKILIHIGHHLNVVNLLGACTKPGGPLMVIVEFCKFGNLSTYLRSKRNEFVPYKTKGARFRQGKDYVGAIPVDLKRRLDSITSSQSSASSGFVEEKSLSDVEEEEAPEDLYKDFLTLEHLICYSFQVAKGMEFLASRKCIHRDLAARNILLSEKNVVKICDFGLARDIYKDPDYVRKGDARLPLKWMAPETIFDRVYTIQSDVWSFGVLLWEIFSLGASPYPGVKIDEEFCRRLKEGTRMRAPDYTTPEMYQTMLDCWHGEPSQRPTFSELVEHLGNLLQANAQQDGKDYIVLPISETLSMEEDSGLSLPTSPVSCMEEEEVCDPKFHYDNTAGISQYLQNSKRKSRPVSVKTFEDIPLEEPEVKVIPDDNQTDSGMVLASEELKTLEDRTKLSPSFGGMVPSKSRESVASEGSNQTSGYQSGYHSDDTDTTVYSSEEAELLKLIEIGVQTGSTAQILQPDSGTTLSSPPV

Consider `CC(C)Oc1cc(NC(=O)NCC(F)(F)F)cc(-c2cnc3cc(-c4cc(N(C)C)ncn4)ccn23)c1` [Compound F-21, 1-{3-[7-(6-Dimethylamino-pyrimidin-4-yl)-imidazo[1,2-a]pyridin-3-yl]-5-isopropoxy-phenyl}-3-(2,2,2-trifluoro-ethyl)-urea], for which the GI50 at Ba/F3-TEL-FGFR3 cells turned out to be 240 nM. Further, the half-inhibitory concentration (IC50) on FGFR3 is 0.012 µM; on VEGFR2 it was 0.79 µM. Besides, the pIC50 in experiment [1] is 5.64.

A word on the IC50: it is the point on the concentration scale where inhibition reaches its midpoint.
